ChEMBL document CHEMBL4414548 (J Med Chem, 2019)
pIC50, pKi: −log10 of the molar value.

Columns and labels:
[1] = Terminal drug concentration in CD40-induced B6 CB17 mouse serum at 250 mg/kg, po BID administered as nanosuspension measured 24 hrs post-last dose; format: ADME, organism-based; conditions: read-out: Drug uptake
[2] = Half life in rat liver microsomes; format: ADME, Microsome
[3] = Efflux ratio of permeability in human Caco2; format: ADME, cell-based; conditions: Caco-2
[4] = molecular target: Tyrosine-protein kinase JAK1 (Homo sapiens, UniProt P23458); experiment: Inhibition of JAK1 JH1 domain (unknown origin)
JAK1/TYK2 = JAK1/TYK2 (Homo sapiens, UniProt P23458+P29597); experiment: Inhibition of TYK2/JAK1 in IFNalpha-stimulated human Kit225 cells by steady-glo luciferase assay
[5] = molecular target: T1, Non-receptor tyrosine-protein kinase TYK2 (Homo sapiens, UniProt P29597); experiment: Inhibition of TYK2 JH2 (unknown origin) by morrison titration assay; conditions: read-out: Ki(app)
[6] = Half life in mouse liver microsomes; format: ADME, Microsome
[7] = Cmax in mouse at 10 mg/kg, po after 7 hrs; format: ADME, organism-based; parameters: dose 10 mg/kg, route oral; conditions: in vivo
[8] = molecular target: T1, Non-receptor tyrosine-protein kinase TYK2; experiment: Inhibition of TYK2 JH1 domain (unknown origin)
[9] = Half life in human liver microsomes; format: ADME, Microsome
[10] = Half life in cynomolgus monkey liver microsomes; format: ADME, Macaca fascicularis, Microsome
[11] = Ratio of drug concentration in IL12/IL18-induced C57BL/6 mouse serum at 0.3 mg/kg, po to IC50 for TYK2 JH2 domain in mouse whole blood; format: ADME, organism-based; conditions: in vivo
[12] = Terminal drug concentration in CD40-induced B6 CB17 mouse serum at 80 mg/kg, po BID administered as nanosuspension measured 24 hrs post-last dose; format: ADME, organism-based; conditions: read-out: Drug uptake
[13] = molecular target: Non-receptor tyrosine-protein kinase TYK2 (Mus musculus, UniProt Q9R117); experiment: Inhibition of TYK2 JH2 domain in mouse whole blood assessed as inhibition of IFNalpha-induced STAT1 phosphorylation preincubated for 1 hr followed by IFNalpha stimulation and measured after 15 mins by fluorescence assay; format: tissue-based
Mus musculus [14] = experiment: Inhibition of IL12/IL18-induced IFNgamma production in C57BL/6 mouse at 10 mg/kg, po pretreated for 1 hr followed by IL12 stimulation and subsequent IL18 addition and measured after 3 hrs relative to control; format: functional; conditions: C57BL/6, po
[15] = Ratio of drug concentration in IL12/IL18-induced C57BL/6 mouse serum at 1 mg/kg, po to IC50 for TYK2 JH2 domain in mouse whole blood; format: ADME, organism-based; conditions: in vivo
[16] = Drug metabolism in C57BL/6 mouse plasma assessed as amide formation at 0.3 to 10 mg/kg, po; format: ADME, organism-based; conditions: in vivo
[17] = Drug concentration in IL12/IL18-induced C57BL/6 mouse serum at 3 mg/kg, po pretreated for 1 hr followed by IL12 stimulation and subsequent IL18 addition and measured after 5 hrs; format: ADME, organism-based; conditions: read-out: Drug uptake
[18] = Ratio of drug concentration in IL12/IL18-induced C57BL/6 mouse serum at 10 mg/kg, po to IC50 for TYK2 JH2 domain in mouse whole blood; format: ADME, organism-based; conditions: in vivo
Mus musculus [19] = experiment: Inhibition of IL12/IL18-induced IFNgamma production in C57BL/6 mouse at 0.3 mg/kg, po pretreated for 1 hr followed by IL12 stimulation and subsequent IL18 addition and measured after 3 hrs relative to control; format: functional; conditions: C57BL/6, po
[20] = Drug concentration in IL12/IL18-induced C57BL/6 mouse serum at 0.3 mg/kg, po pretreated for 1 hr followed by IL12 stimulation and subsequent IL18 addition and measured after 5 hrs; format: ADME, organism-based; conditions: read-out: Drug uptake
[21] = molecular target: T1, Non-receptor tyrosine-protein kinase TYK2; experiment: Inhibition of fluorescein-labeled kinase tracer binding to His-TVMV-fused TYK2 JH2 domain (575 to 869 residues) (unknown origin) measured after 90 mins by HTRF assay
[22] = Half life in dog liver microsomes; format: ADME, Canis lupus familiaris, Microsome
[23] = molecular target: Tyrosine-protein kinase JAK2 (Homo sapiens, UniProt O60674); experiment: Inhibition of JAK2 JH1 domain (unknown origin)
Mus musculus [24] = experiment: Inhibition of IL12/IL18-induced IFNgamma production in C57BL/6 mouse at 1 mg/kg, po pretreated for 1 hr followed by IL12 stimulation and subsequent IL18 addition and measured after 3 hrs relative to control; format: functional; conditions: C57BL/6, po
Mus musculus [25] = experiment: Inhibition of IL12/IL18-induced IFNgamma production in C57BL/6 mouse at 3 mg/kg, po pretreated for 1 hr followed by IL12 stimulation and subsequent IL18 addition and measured after 3 hrs relative to control; format: functional; conditions: C57BL/6, po
[26] = AUClast in mouse at 10 mg/kg, po after 7 hrs; format: ADME, organism-based; parameters: time < 7 hr, dose 10 mg/kg, route oral; conditions: in vivo
[27] = Permeability across apical to basolateral side in human Caco2 cells; format: ADME, cell-based; conditions: Caco-2, read-out: permeability
[28] = Drug concentration in IL12/IL18-induced C57BL/6 mouse serum at 10 mg/kg, po pretreated for 1 hr followed by IL12 stimulation and subsequent IL18 addition and measured after 5 hrs; format: ADME, organism-based; conditions: read-out: Drug uptake
[29] = molecular target: T1, Non-receptor tyrosine-protein kinase TYK2; experiment: Inhibition of TYK2 JH2 domain in human whole blood assessed as inhibition of IFNalpha-induced STAT5 phosphorylation preincubated for 1 hr followed by IFNalpha stimulation and measured after 15 mins by fluorescence assay; format: tissue-based
[30] = Ratio of drug concentration in IL12/IL18-induced C57BL/6 mouse serum at 3 mg/kg, po to IC50 for TYK2 JH2 domain in mouse whole blood; format: ADME, organism-based; conditions: in vivo
[31] = Drug concentration in IL12/IL18-induced C57BL/6 mouse serum at 1 mg/kg, po pretreated for 1 hr followed by IL12 stimulation and subsequent IL18 addition and measured after 5 hrs; format: ADME, organism-based; conditions: read-out: Drug uptake
[32] = Terminal drug concentration in CD40-induced B6 CB17 mouse serum at 25 mg/kg, po BID administered as nanosuspension measured 24 hrs post-last dose; format: ADME, organism-based; conditions: read-out: Drug uptake
[33] = Partition coefficient, log P of compound by HPLC analysis; format: physicochemical; conditions: octanol/water

T1 sequence (P29597 whole entry): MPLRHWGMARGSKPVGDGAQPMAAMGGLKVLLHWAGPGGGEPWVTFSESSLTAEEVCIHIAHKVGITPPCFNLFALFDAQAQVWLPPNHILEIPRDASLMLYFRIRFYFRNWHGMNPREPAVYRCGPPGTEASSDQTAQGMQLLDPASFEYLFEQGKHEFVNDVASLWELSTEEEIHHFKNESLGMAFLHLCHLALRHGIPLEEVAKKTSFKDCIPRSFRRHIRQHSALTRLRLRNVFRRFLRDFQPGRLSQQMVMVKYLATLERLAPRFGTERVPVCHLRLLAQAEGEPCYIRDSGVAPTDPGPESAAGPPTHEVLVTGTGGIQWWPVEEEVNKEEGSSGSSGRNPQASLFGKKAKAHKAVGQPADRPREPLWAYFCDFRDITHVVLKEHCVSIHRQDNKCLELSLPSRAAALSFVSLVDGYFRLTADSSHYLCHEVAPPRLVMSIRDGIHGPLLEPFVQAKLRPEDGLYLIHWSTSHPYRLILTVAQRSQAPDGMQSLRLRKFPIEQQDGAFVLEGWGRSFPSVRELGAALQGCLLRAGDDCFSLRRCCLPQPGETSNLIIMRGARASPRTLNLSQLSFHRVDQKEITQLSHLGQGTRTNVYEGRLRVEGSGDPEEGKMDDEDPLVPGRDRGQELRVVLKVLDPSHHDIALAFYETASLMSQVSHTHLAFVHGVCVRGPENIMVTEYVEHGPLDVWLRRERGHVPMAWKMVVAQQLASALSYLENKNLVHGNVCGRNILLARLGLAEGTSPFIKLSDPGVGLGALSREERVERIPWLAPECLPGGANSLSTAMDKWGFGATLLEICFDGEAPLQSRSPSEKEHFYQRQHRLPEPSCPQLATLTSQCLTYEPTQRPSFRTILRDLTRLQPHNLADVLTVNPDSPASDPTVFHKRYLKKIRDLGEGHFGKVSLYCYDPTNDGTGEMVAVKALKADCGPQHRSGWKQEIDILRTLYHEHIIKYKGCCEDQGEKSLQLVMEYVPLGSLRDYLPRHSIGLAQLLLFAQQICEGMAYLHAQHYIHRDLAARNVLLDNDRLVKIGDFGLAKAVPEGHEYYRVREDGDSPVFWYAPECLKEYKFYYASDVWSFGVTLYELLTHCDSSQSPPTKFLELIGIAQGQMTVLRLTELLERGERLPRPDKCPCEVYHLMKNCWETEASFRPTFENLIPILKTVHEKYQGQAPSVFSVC
Chain of Tyrosine-protein kinase JAK1 (P23458 whole entry, the tested form may be a part): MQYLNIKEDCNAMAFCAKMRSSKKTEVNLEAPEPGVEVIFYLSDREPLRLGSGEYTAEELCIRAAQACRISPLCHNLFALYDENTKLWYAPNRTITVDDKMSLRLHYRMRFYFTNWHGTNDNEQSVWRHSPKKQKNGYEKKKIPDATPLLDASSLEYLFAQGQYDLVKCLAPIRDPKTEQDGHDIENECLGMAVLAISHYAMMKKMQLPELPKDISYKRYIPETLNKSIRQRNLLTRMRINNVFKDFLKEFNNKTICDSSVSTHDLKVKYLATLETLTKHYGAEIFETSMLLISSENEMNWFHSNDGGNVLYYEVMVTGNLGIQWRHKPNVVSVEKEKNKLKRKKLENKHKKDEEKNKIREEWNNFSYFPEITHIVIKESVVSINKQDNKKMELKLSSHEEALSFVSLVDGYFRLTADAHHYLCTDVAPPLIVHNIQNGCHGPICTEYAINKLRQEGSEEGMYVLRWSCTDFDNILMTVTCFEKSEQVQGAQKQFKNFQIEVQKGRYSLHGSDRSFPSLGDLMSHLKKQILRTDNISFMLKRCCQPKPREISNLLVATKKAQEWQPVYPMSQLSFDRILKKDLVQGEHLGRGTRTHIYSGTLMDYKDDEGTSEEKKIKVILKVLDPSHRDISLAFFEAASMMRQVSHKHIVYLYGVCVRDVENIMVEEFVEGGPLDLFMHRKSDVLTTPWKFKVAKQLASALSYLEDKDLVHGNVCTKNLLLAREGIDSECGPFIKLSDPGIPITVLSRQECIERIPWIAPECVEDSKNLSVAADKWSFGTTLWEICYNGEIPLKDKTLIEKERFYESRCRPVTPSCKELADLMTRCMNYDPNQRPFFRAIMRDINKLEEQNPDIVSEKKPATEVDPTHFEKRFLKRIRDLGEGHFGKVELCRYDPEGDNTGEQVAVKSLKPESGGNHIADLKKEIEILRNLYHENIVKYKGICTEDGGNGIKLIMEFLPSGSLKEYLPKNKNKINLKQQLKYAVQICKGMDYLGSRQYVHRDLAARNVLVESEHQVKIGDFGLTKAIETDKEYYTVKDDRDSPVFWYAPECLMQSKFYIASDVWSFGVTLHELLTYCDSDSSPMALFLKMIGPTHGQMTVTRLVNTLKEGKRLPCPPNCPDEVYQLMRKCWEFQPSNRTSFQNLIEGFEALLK
Chain of JAK1/TYK2 (P23458 whole entry): as the sequence (P23458 whole entry, the tested form may be a part) above
Chain of JAK1/TYK2 (P29597 whole entry): as the sequence (P29597 whole entry) above
Chain of Tyrosine-protein kinase JAK2 (O60674 whole entry, the tested form may be a part): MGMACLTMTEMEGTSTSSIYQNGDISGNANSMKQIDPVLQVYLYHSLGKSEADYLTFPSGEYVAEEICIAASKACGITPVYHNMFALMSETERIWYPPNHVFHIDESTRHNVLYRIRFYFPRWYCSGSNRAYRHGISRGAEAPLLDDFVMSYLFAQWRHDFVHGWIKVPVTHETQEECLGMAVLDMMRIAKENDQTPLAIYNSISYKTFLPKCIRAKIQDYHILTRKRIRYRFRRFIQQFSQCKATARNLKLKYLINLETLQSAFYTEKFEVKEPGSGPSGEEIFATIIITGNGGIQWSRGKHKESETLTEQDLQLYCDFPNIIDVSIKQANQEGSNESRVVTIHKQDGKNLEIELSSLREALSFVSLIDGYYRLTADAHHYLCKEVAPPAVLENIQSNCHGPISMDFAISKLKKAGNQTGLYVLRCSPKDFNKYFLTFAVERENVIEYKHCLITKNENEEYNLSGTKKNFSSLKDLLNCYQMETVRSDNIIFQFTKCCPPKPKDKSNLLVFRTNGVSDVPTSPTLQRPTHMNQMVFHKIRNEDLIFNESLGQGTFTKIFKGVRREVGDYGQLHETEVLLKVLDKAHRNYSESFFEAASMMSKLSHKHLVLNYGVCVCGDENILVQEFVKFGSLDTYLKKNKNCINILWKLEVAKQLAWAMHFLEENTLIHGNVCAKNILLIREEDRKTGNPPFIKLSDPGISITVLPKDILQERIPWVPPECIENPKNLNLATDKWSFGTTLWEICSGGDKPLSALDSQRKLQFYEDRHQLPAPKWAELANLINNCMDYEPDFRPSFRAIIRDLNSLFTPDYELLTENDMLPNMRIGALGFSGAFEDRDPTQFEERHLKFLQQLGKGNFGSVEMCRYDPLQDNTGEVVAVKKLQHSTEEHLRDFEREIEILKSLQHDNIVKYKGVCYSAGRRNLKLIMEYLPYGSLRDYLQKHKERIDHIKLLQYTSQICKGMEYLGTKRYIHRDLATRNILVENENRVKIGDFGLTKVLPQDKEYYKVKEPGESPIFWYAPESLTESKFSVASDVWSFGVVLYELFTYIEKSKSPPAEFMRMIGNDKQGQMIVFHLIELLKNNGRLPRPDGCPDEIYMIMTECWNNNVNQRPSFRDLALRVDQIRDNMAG
Chain of Non-receptor tyrosine-protein kinase TYK2 (Mus musculus, UniProt Q9R117) (Q9R117 whole entry, the tested form may be a part): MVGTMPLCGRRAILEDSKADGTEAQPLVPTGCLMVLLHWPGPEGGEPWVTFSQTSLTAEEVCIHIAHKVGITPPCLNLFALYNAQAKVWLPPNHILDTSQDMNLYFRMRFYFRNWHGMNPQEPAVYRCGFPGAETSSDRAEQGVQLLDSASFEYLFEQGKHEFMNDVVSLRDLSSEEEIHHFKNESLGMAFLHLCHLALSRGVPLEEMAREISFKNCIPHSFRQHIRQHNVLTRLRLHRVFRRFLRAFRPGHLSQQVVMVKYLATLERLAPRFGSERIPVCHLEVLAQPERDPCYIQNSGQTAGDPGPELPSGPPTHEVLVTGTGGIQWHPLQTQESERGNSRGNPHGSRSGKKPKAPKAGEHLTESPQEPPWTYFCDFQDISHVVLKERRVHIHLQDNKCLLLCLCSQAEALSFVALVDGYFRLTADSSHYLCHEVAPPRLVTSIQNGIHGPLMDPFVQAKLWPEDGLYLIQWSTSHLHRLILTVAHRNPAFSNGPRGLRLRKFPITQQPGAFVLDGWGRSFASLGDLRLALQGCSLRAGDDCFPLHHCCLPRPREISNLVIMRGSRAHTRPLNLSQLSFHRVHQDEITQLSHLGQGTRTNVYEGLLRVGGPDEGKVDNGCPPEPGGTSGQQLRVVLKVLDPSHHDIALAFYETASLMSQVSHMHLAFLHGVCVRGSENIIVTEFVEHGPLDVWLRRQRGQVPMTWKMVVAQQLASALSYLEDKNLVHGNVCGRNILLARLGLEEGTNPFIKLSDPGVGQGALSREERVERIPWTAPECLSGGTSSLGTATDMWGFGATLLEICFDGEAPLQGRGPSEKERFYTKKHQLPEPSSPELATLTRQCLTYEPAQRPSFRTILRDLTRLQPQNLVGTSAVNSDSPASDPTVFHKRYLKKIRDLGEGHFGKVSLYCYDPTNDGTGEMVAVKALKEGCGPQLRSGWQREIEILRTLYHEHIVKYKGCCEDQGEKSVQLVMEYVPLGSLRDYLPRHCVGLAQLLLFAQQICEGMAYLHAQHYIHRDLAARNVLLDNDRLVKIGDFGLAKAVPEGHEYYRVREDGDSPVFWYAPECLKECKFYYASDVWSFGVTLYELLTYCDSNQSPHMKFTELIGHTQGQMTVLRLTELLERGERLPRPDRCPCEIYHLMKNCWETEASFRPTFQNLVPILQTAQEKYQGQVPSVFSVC

concentration at 24 h [1]: 77 nM | half-life [2]: 49 min | efflux ratio [3]: 2.1 | pIC50 [4]: < 4.40 | pIC50 (JAK1/TYK2): 9.28 | pKi [5]: 10.15 | half-life [6]: 46 min | Cmax [7]: 10500 nM | pIC50 [8]: < 4.30 | half-life [9]: 48 min | half-life [10]: 4 min | Ratio [11]: 0.2 | concentration at 24 h [12]: 67 nM | pIC50 [13]: 6.92 | Ratio [15]: 0.5 | Drug metabolism [16]: Metabolite_Notdetected | concentration at 5 h [17]: 133 nM | Ratio [18]: 4 | concentration at 5 h [20]: 24 nM | pIC50 [21]: 9.28 | half-life [22]: 19 min | pIC50 [23]: < 4.30 | AUC(0-t) at 7 h [26]: 24.3 µM·h | Papp A→B [27]: 28 ×10⁻⁶ cm/s | concentration at 5 h [28]: 503 nM | pIC50 [29]: 6.89 | Ratio [30]: 1 | concentration at 5 h [31]: 69 nM | concentration at 24 h [32]: 12 nM | logP [33]: 2.45
SMILES: [2H]C([2H])([2H])NC(=O)c1nnc(Nc2ccccn2)cc1Nc1ccccc1S(C)(=O)=O
inhibition in vivo at 10 mg/kg (Mus musculus [14]): 91% | inhibition in vivo at 0.3 mg/kg (Mus musculus [19]): 13% | inhibition in vivo at 1 mg/kg (Mus musculus [24]): 56% | inhibition in vivo at 3 mg/kg (Mus musculus [25]): 77%
